This is an account of results in a melting point compilation (Tetko et al.; mined from patent text by program, amines drawn as free bases though some values may be those of a salt).

SMILES strings stand for the structures.

The melting point is the temperature of the solid-liquid transition. Molecule `COc1ccc(C(=O)CCCCCN2CCC(CNC(=O)c3cc(Cl)c(N)cc3OC)CC2)cc1Cl` came in with a melting point of 104 to 106 °C.

On to `CCCOc1ccccc1CCCOc1ccc2c(c1)C=C(C(=O)O)CCS2(=O)=O`, for which the melting point fell in the range of 153 to 157 °C.

Take `CC(C)N(Cc1ccc(Br)cc1)C(=S)Nc1ccccc1`: the melting point is 134 °C.

The molecule `CN(C)C(=O)Oc1ccc2c(c1)[nH]c(=O)c1c3ccc(OC(=O)N(C)C)cc3oc21` returned a melting point of 255 to 269 °C.

Turning to `CC12C=CC(=O)C=C1CCC1C2C(O)CC2(C)C(C(=O)CO)=CCC12` (stereo not drawn), the melting point was 213 to 215 °C.

The molecule `O=C(Nc1ccc(Cl)cc1)C1=C(C(=O)Nc2cc(OC3CCCC3)c(Cl)cc2F)CCCC1` had a melting point of 221 to 222 °C.

`COC(=O)[C@@H]1COC(=O)N1c1nc(-c2ccc(Br)cc2)cs1` gave a melting point of 165 to 167 °C.

As for `CC1(C)CC[C@@H](C(=O)O)[C@@H]1SC(=O)c1ccccc1` (relative stereo), the melting point came to 131 °C.

Molecule `Cc1ccc(NC(=O)c2c(Cl)cccc2Cl)c2nccc(Cl)c12` showed a melting point of 258 to 260 °C.

`COc1ccc(Nc2nc(Cl)nc(OCC3CCCCC3)n2)cc1Cl` registered a melting point of 114 °C.

As to `COc1ccc(C(C)=O)cc1C(F)(F)F`, the melting point was in the range of 56 to 57 °C.

`Cc1ccc(S(=O)(=O)N[C@@H]2COC(=O)[C@H]2Cc2ccccc2)cc1` yielded a melting point of 108 to 109 °C.

Consider `CCOC(=O)c1cn(C2CSC2)c2nc(Cl)c(F)cc2c1=O`, for which the melting point lay within 157 to 161 °C.

As for `O=C(Nc1ccccc1S(=O)(=O)c1ccccc1)N[C@@H](Cc1ccc(NC(=O)c2c(Cl)cncc2Cl)cc1)C(=O)O`, the melting point turned out to be 214 °C.

For the molecule `CCCCCCc1nc2cnc3ccccc3c2n1CCCCNS(=O)(=O)c1ccccc1`, the melting point is 137 to 138 °C.

Consider `Cc1cc(-c2cc(C(F)(F)F)n3ncc(C(=O)Nc4cc(S(N)(=O)=O)sc4Cl)c3n2)ccc1C(F)(F)F`, for which the melting point was 283 °C.

In turn, `CN1CCN(C(=S)Nc2ccc3nc(C(C)(C)C)sc3c2)CC1` returned a melting point of 176 to 177 °C.

With `CC1(C)CC1C(=O)NC(=CCCC(=O)O)C(=O)O` (stereo not drawn), the melting point was in the range of 163 to 165 °C.

Take `CC(=O)Nc1ccc(OCCOCCO)cc1`: the melting point worked out at 94 °C.

`COc1c(CBr)c(OC)c(CBr)c(OC)c1CBr` gave a melting point of 126 °C.

As for `CCCC1=C(C(=O)OCC)C(c2cc(F)ccc2OC)c2c[nH]nc2N1` (stereo not drawn), the melting point lay in the range of 164 to 167 °C.

For the molecule `COCCOc1ccc(/C=C/C(=O)NS(=O)(=O)c2ccc(Cl)cc2)c(Oc2ncc(C(F)(F)F)cc2Cl)c1`, the melting point was determined as 182 °C.

Regarding `CNC(=O)n1sc(SCc2ccc(Cl)cc2)nc1=O`, the melting point was determined as 140 °C.

Take `CCCCCN(CCCCC)C(=O)CCCCC(=O)O`: the melting point was 152 °C.

`[N-]=[N+]=NS(=O)(=O)c1ccc(N2CC(CO)OC2=O)cc1` (stereo not drawn) yielded a melting point of 108 to 110 °C.

`ON=Cc1c(C(F)(F)F)ccc(F)c1F` gave a melting point of 111 to 112 °C.

As for `CCCc1ccc(NC=C(C(=O)OCC)C(=O)c2ccccc2Cl)cc1`, the melting point was in the range of 98.5 to 104 °C.

With `CC(=O)Nc1nc2c(Oc3cc(-c4ccc(C(F)(F)F)cc4OS(=O)(=O)C(F)(F)F)ncn3)cccc2s1`, the melting point was in the range of 209 to 212 °C.

Molecule `COC(=O)c1oc(C)nc1-c1ccc2c(c1)CCCC2` yielded a melting point of 96 to 97 °C.

In the case of `FS(F)(F)(F)(F)c1cc(Br)cc(S(F)(F)(F)(F)F)c1`, the melting point was 65.9 to 66.4 °C.

In the case of `COc1ccc(C(=O)Nc2ccccc2)cc1NCc1ccc([N+](=O)[O-])c(O)c1`, the melting point is 140 to 143 °C.

On to `CNc1ccc(C)cc1C(=O)Cc1nnnn1C`, for which the melting point fell in the range of 141 to 143 °C.

In turn, `CCC(=O)N1CCN(c2ccc(NC(=O)c3cc(=O)c4cc(F)cc(N5CCN(C)CC5)c4o3)cc2)CC1` had a melting point of 244 to 245 °C.

In turn, `O=C(c1ccccc1)c1cnn2c(-c3cccnc3)ccnc12` yielded a melting point of 202 to 203 °C.

Molecule `Cc1nc2ccc(N3CCN[C@H](C)C3)nn2c1-c1ccnc2[nH]ccc12` displayed a melting point of 202 to 204 °C.

The molecule `CCn1c(C)nc2cc(C(F)(F)F)c(OC)cc21` showed a melting point of 127 to 130 °C.

In the case of `COC(=O)c1sc(C)c2nc(OC)n(Cc3ccc(-c4ccccc4C#N)cc3)c12`, the melting point lay within 181 to 182 °C.

As for `O=C1N(Cc2ccccn2)c2cccc(-c3cncnc3)c2C12COc1cc3c(cc12)CCO3` (stereo not drawn), the melting point was greater than 200 °C.

In turn, `CN(C)CC#CCNC(=O)/C=C\C(=O)O` returned a melting point of 155 to 157 °C.

`Cc1coc2c1C(=O)CC(c1ccc(F)cc1)C2` (stereo not drawn) gave a melting point of 81 to 82 °C.

Molecule `CN(Cc1ccccc1)c1nc(Cl)ncc1F` displayed a melting point of 47 to 49 °C.

Consider `Cn1cc(-c2ccccc2)c(=O)c(-c2ccc(C(F)(F)F)cc2)c1`, for which the melting point lay within 164 to 166 °C.

Take `CCCOc1cc(CCCOc2nn(Cc3ccccc3)cc2CC(=O)O)n(Cc2ccc(F)cc2F)n1`: the melting point was 94 to 95 °C.

As to `C[C@@H](O)c1nccc(N2CCN(c3nc4cccnc4o3)CC2)n1`, the melting point lay in the range of 153 to 156 °C.

Molecule `N#Cc1c(Cl)cc(Cl)cc1[N+](=O)[O-]` showed a melting point of 102 to 103 °C.

With `COC(=O)NC1CCc2ccc(Cl)cc2C1` (stereo not drawn), the melting point is 99 to 101 °C.

`COCc1nccc(SCCCSc2ccc3ncc([N+](=O)[O-])n3n2)c1C`: the melting point was in the range of 107 to 110 °C.

Molecule `Clc1nccc(N2CCC3(CC2)COc2ccccc23)c1Cl` displayed a melting point of 177 °C.

The molecule `Cn1nc(-c2cccc(C(F)(F)F)c2)c(Cl)c1C(=O)O` yielded a melting point of 180 to 183 °C.

As for `Cc1cc(C)c(Nc2nc(C)ncc2S(=O)(=O)c2ccc(C3=NCCN3)cc2)c(C)c1`, the melting point fell in the range of 240 to 242 °C.

Molecule `COC(=O)/C=C(/C#Cc1ccccc1)c1ccccc1` displayed a melting point of 73 to 75 °C.

Take `CC1(C)COC(c2c(Cl)cc(Cl)cc2-c2ccc(F)cc2)=N1`: the melting point fell in the range of 93 to 95 °C.

Consider `O=C(COc1ccc([N+](=O)[O-])cc1)OCCOC(=O)COc1ccc([N+](=O)[O-])cc1`, for which the melting point lay in the range of 118 to 121 °C.

With `CCCN(CCC)C1Cc2cc3c(cc2C1)C(=O)N(Cc1ccccn1)C3=O`, the melting point lay within 130 to 135 °C.

`COc1cc(C=C2C(=O)CCc3c2ccc2c3OCO2)c([N+](=O)[O-])cc1OC` came in with a melting point of 66 to 68 °C.

`CC(C)CN1CCCC1CNC(=O)c1cc(S(N)(=O)=O)cc2c1OC(C)C2` (stereo not drawn): the melting point lay within 182 to 184 °C.

Molecule `O=C(CNc1ccc2[nH]c(=O)oc2c1)N1CCC(Oc2ccc(Cl)cc2)CC1` displayed a melting point of 180 to 183 °C.

Molecule `O=C(O)/C=C/c1cc(C2CC2)nn1Cc1ccc(C(F)(F)F)cc1Cl` gave a melting point of 191 to 192 °C.

Molecule `CC(C)OC(=O)c1ccc(NC(=O)N2CC(CCCC#N)C(c3ccc(Cl)cc3)=N2)cc1` (stereo not drawn) registered a melting point of 109 to 113 °C.

As for `CCc1cc(Br)cc2c1C(=O)C(=O)N2`, the melting point was in the range of 229 to 230 °C.

For `COc1cccc([C@H]2O[C@H](CC(=O)Nc3ccc(CCC(=O)O)cc3)C(=O)N(CC(C)(C)COC(C)=O)c3ccc(Cl)cc32)c1OC`, the melting point was in the range of 144 to 146 °C.

Take `NCc1cc(Cl)c(N=C2NCCN2)c(Cl)c1`: the melting point is 205 to 206 °C.

`CC(n1ncnn1)C(O)(c1ccc(Cl)cc1)c1ccc(C(F)(F)F)cc1` (stereo not drawn) came in with a melting point of 123 to 125 °C.
